Experimental data: publication PMC5379148, “A phase I study of intravenous and oral rucaparib in combination with chemotherapy in patients with advanced solid tumours” (British Journal of Cancer, 2017)
Read-outs that look alike come from different tables or passages of the source.

Key:
[1] = system: patients with advanced solid tumours; test: Dose-limiting toxicities in cycle 1 and maximum tolerated dose; assay type: in vivo, human; conditions: days 1–14, with AUC5 carboplatin day 1, 21-day cycles
Experimental: Initially, at least three patients were treated at each dose level. If no DLT was observed, the dose was escalated for the next cohort of three patients. […] If no further DLT was observed, the next dose level was opened. […] When a dose was concluded to be above the MTD, the preceding lower dose was declared the MTD, but only if six patients had already been treated at this lower dose.
All patients who received at least one dose of study medication were evaluable for toxicity.

advanced solid tumours = test: Investigator-assessed tumour response (RECIST version 1.1); assay type: in vivo, human
Experimental: Antitumour activity was assessed by the investigators according to Response Evaluation Criteria in Solid Tumor version 1.1 (RECIST) ([Eisenhauer et al, 2009]) through radiological tumour assessments performed every two cycles and/or at the end of treatment, whichever occurred first.

[2] = system: advanced ovarian or breast cancer associated with a germline BRCA1/2 mutation; parameters: method as in Drew et al, 2016; conditions: single agent, ref Drew et al, 2016, cited from earlier work
[3] = system: patients with advanced solid tumours; conditions: single-agent oral rucaparib; ref Kristeleit et al, 2014; cited from earlier work
[4] = Plasma pharmacokinetics of rucaparib (LC-MS/MS, noncompartmental); conditions: for Vd / AUC(0-t) / AUC(0-inf) / Cmax / Tmax / bioavailability / Tmax at 14 days: human, plasma; for AUC(0-inf): AUCinf; for Tmax / Tmax at 14 days: median (minimum, maximum)
Experimental: On cycle 1 days −10, −5, 1, and 14, plasma samples were obtained from all patients before rucaparib dosing and at 15 and 30 min, and at 1, 1.5, 2.5, 4, 6, 10, and 24 h after the start of the rucaparib administration (i.v. infusion (day −10) or oral (days −5, 1, and 14)). On cycle 1 days −10 and −5, samples were also obtained 48 h after the start of rucaparib administration. Rucaparib concentration was determined using liquid chromatography with tandem mass spectrometry.
Plasma clearance or apparent plasma clearance and steady-state volume of distribution were calculated for rucaparib. The oral bioavailability of rucaparib was calculated as the ratio of dose-normalised AUC0–t or AUCinf (data permitting) determined using oral rucaparib PK data collected on cycle 1 day −5 to that determined using the i.v. PK data collected on cycle 1 day −10. Pharmacokinetic parameters were summarised with the geometric mean and the coefficient of variation (CV). The ratio of Cmax and AUC0–24 of rucaparib administered in combination with chemotherapies to those of rucaparib alone was calculated and summarised, with mean and CV% to evaluate the effect of chemotherapies on the PK of rucaparib for both the i.v. dose (day −10) and oral dose (day −5).
The oral bioavailability of rucaparib was calculated as the ratio of dose-normalised AUC0-t or AUCinf (data permitting) determined using oral rucaparib PK data collected on cycle 1 day –5 to that determined using the intravenous PK data collected on cycle 1 day –10. The tmax was summarised with medians and ranges. The accumulation ratio after multiple oral rucaparib dosing (once daily) was assessed as the ratio of the AUC0-24 determined using PK collected on cycle 1 day 14 to the AUC0-24 after the cycle 1 day –5 lead-in dose. The ratio of the Cmax on day 14 to the Cmax on day –5 was also calculated. Additionally, the ratio of the AUC0-24 on cycle 1 day 14 to the AUCinf after the cycle 1 day –5 lead-in dose was calculated as an indication for any time-dependent change in rucaparib PK.

[5] = investigator-assessed, RECIST 1.1, All patients (N=85), all arms
[6] = iv, 12 mg, single i.v. dose 12 mg, day –10, geometric mean (CV%)
[7] = iv, 18 mg, single i.v. dose 18 mg, day –10, geometric mean (CV%)
[8] = iv, 24 mg, single i.v. dose 24 mg, day –10, geometric mean (CV%)
[9] = iv, 27 mg, single i.v. dose 27 mg, day –10, geometric mean (CV%)
[10] = iv, 40 mg, single i.v. dose 40 mg, day –10, geometric mean (CV%)
[11] = po, 12 mg, single oral dose 12 mg, day –5, geometric mean (CV%)
[12] = po, 36 mg, single oral dose 36 mg, day –5, geometric mean (CV%)
[13] = po, 48 mg, single oral dose 48 mg, day –5, geometric mean (CV%)
[14] = po, 72 mg, single oral dose 72 mg, day –5, geometric mean (CV%)
[15] = po, 80 mg, single oral dose 80 mg, day 1, geometric mean (CV%)
[16] = po, 80 mg, single oral dose 80 mg, day –5, geometric mean (CV%)
[17] = po, 120 mg, single oral dose 120 mg, day 1, geometric mean (CV%)
[18] = po, 120 mg, single oral dose 120 mg, day –5, geometric mean (CV%)
[19] = po, 180 mg, single oral dose 180 mg, day –5, geometric mean (CV%)
[20] = po, 240 mg, single oral dose 240 mg, day 1, geometric mean (CV%)
[21] = po, 240 mg, single oral dose 240 mg, day –5, geometric mean (CV%)
[22] = po, 360 mg, single oral dose 360 mg, day 1, geometric mean (CV%)
[23] = po, 360 mg, single oral dose 360 mg, day –5, geometric mean (CV%)

CNCc1ccc(-c2[nH]c3cc(F)cc4c3c2CCNC4=O)cc1 [rucaparib]
MTD of oral rucaparib in the combination [1]: 240 mg once daily (q.d.) | disease control rate (CR, PR, or SD for ⩾12 weeks) (advanced solid tumours; across all cohorts, among patients with available data (77 of 85)): 68.8% | partial responses that were confirmed (advanced solid tumours; across all cohorts, of 9 patients with PR): 7 patients | Best response: Complete response (advanced solid tumours; [5]): 1 (1.2) n (%) | Best response: Partial response (advanced solid tumours; [5]): 9 (10.6) n (%) | Best response: Progressive disease (advanced solid tumours; [5]): 24 (28.2) n (%) | Best response: Stable disease (advanced solid tumours; [5]): 43 (50.6) n (%) | response rate ([2]; continuous oral dosing): 18% | response rate ([2]; intermittent intravenous (i.v.) dosing): 2% | recommended phase II dose [3]: 600 mg twice daily | impact of chemotherapy coadministration on i.v. rucaparib PK ([4]; carboplatin+paclitaxel, cisplatin+pemetrexed, or epirubicin+cyclophosphamide): No apparent impact | Vd ([4]; iv, 12 mg): 258 L | AUC(0-t) ([4]; iv, 12 mg, AUC0-24, single i.v. dose 12 mg, day –10, geometric mean (CV%)): 549 ng·h/mL | AUC(0-inf) [4, 6]: 740 ng·h/mL | Cmax [4, 6]: 324 ng/mL | Tmax ([4]; iv, 12 mg, single i.v. dose 12 mg, day –10): 0.5 h | Vd ([4]; iv, 18 mg): 234 L | AUC(0-t) ([4]; iv, 18 mg, AUC0-24, single i.v. dose 18 mg, day –10, geometric mean (CV%)): 812 ng·h/mL | AUC(0-inf) [4, 7]: 976 ng·h/mL | Cmax [4, 7]: 498 ng/mL | Tmax ([4]; iv, 18 mg, single i.v. dose 18 mg, day –10): 0.5 h | Vd ([4]; iv, 24 mg): 262 L | AUC(0-t) ([4]; iv, 24 mg, AUC0-24, single i.v. dose 24 mg, day –10, geometric mean (CV%)): 1220 ng·h/mL | AUC(0-inf) [4, 8]: 1710 ng·h/mL | Cmax [4, 8]: 627 ng/mL | Tmax ([4]; iv, 24 mg, single i.v. dose 24 mg, day –10): 0.5 h | Vd ([4]; iv, 27 mg): 191 L | AUC(0-t) ([4]; iv, 27 mg, AUC0-24, single i.v. dose 27 mg, day –10, geometric mean (CV%)): 1450 ng·h/mL | AUC(0-inf) [4, 9]: 1900 ng·h/mL | Cmax [4, 9]: 866 ng/mL | Tmax ([4]; iv, 27 mg, single i.v. dose 27 mg, day –10): 0.38 h | Vd ([4]; iv, 40 mg): 113 L | AUC(0-t) ([4]; iv, 40 mg, AUC0-24, single i.v. dose 40 mg, day –10, geometric mean (CV%)): 2530 ng·h/mL | AUC(0-inf) [4, 10]: 2880 ng·h/mL | Cmax [4, 10]: 1610 ng/mL | Tmax ([4]; iv, 40 mg, single i.v. dose 40 mg, day –10): 0.5 h | bioavailability ([4]; po): 36% | bioavailability ([4]; po, 12 mg): 33.4% | AUC(0-t) ([4]; po, 12 mg, AUC0-24, single oral dose 12 mg, day –5, geometric mean (CV%)): 155 ng·h/mL | AUC(0-inf) [4, 11]: 225 ng·h/mL | Cmax [4, 11]: 24 ng/mL | Tmax ([4]; po, 12 mg, single oral dose 12 mg, day –5): 1 h | bioavailability ([4]; po, 36 mg): 45.3% | AUC(0-t) ([4]; po, 36 mg, AUC0-24, single oral dose 36 mg, day –5, geometric mean (CV%)): 696 ng·h/mL | AUC(0-inf) [4, 12]: 1100 ng·h/mL | Cmax [4, 12]: 90 ng/mL | Tmax ([4]; po, 36 mg, single oral dose 36 mg, day –5): 2 h | bioavailability ([4]; po, 48 mg): 33.6% | AUC(0-t) ([4]; po, 48 mg, AUC0-24, single oral dose 48 mg, day –5, geometric mean (CV%)): 620 ng·h/mL | AUC(0-inf) [4, 13]: 922 ng·h/mL | Cmax [4, 13]: 80 ng/mL | Tmax ([4]; po, 48 mg, single oral dose 48 mg, day –5): 1.25 h | bioavailability ([4]; po, 72 mg): 30.1% | AUC(0-t) ([4]; po, 72 mg, AUC0-24, single oral dose 72 mg, day –5, geometric mean (CV%)): 893 ng·h/mL | AUC(0-inf) [4, 14]: 1090 ng·h/mL | Cmax [4, 14]: 108 ng/mL | Tmax ([4]; po, 72 mg, single oral dose 72 mg, day –5): 2 h | bioavailability ([4]; po, 80 mg): 30.7% | AUC(0-t) ([4]; po, 80 mg, AUC0-24, oral 80 mg q.d. for 14 days, n = 1): 2210 ng·h/mL | AUC(0-t) ([4]; po, 80 mg, AUC0-24, single oral dose 80 mg, day 1, geometric mean (CV%)): 1380 ng·h/mL | AUC(0-t) ([4]; po, 80 mg, AUC0-24, single oral dose 80 mg, day –5, geometric mean (CV%)): 1270 ng·h/mL | AUC(0-inf) [4, 15]: 1700 ng·h/mL | AUC(0-inf) [4, 16]: 1920 ng·h/mL | Cmax ([4]; po, 80 mg, oral 80 mg q.d. for 14 days, n = 1): 190 ng/mL | Cmax [4, 15]: 99 ng/mL | Cmax [4, 16]: 114 ng/mL | Tmax at 14 days ([4]; po, 80 mg, oral 80 mg q.d. for 14 days): 2.5 h | Tmax ([4]; po, 80 mg, single oral dose 80 mg, day 1): 4 h | Tmax ([4]; po, 80 mg, single oral dose 80 mg, day –5): 2.5 h | bioavailability ([4]; po, 120 mg): 41.1% | AUC(0-t) ([4]; po, 120 mg, AUC0-24, oral 120 mg q.d. for 14 days, geometric mean (CV%)): 4040 ng·h/mL | AUC(0-t) ([4]; po, 120 mg, AUC0-24, single oral dose 120 mg, day 1, geometric mean (CV%)): 3260 ng·h/mL | AUC(0-t) ([4]; po, 120 mg, AUC0-24, single oral dose 120 mg, day –5, geometric mean (CV%)): 2920 ng·h/mL | AUC(0-inf) [4, 17]: 3770 ng·h/mL | AUC(0-inf) [4, 18]: 4070 ng·h/mL | Cmax ([4]; po, 120 mg, oral 120 mg q.d. for 14 days, geometric mean (CV%)): 375 ng/mL | Cmax [4, 17]: 344 ng/mL | Cmax [4, 18]: 274 ng/mL | Tmax at 14 days ([4]; po, 120 mg, oral 120 mg q.d. for 14 days): 2.5 h | Tmax ([4]; po, 120 mg, single oral dose 120 mg, day 1): 4 h | Tmax ([4]; po, 120 mg, single oral dose 120 mg, day –5): 4 h | AUC(0-t) ([4]; po, 180 mg, AUC0-24, oral 180 mg q.d. for 14 days, geometric mean (CV%)): 7660 ng·h/mL | AUC(0-t) ([4]; po, 180 mg, AUC0-24, single oral dose 180 mg, day 1, geometric mean (CV%)): 5920 ng·h/mL | AUC(0-t) ([4]; po, 180 mg, AUC0-24, single oral dose 180 mg, day –5, geometric mean (CV%)): 5610 ng·h/mL | AUC(0-inf) [4, 19]: 8410 ng·h/mL | Cmax ([4]; po, 180 mg, oral 180 mg q.d. for 14 days, geometric mean (CV%)): 454 ng/mL | Cmax ([4]; po, 180 mg, single oral dose 180 mg, day 1, geometric mean (CV%)): 527 ng/mL | Cmax [4, 19]: 410 ng/mL | Tmax at 14 days ([4]; po, 180 mg, oral 180 mg q.d. for 14 days): 4 h | Tmax ([4]; po, 180 mg, single oral dose 180 mg, day 1): 6 h | Tmax ([4]; po, 180 mg, single oral dose 180 mg, day –5): 4 h | AUC(0-t) ([4]; po, 240 mg, AUC0-24, oral 240 mg q.d. for 14 days, geometric mean (CV%)): 7560 ng·h/mL | AUC(0-t) ([4]; po, 240 mg, AUC0-24, single oral dose 240 mg, day 1, geometric mean (CV%)): 5130 ng·h/mL | AUC(0-t) ([4]; po, 240 mg, AUC0-24, single oral dose 240 mg, day –5, geometric mean (CV%)): 5030 ng·h/mL | AUC(0-inf) [4, 20]: 4370 ng·h/mL | AUC(0-inf) [4, 21]: 6990 ng·h/mL | Cmax ([4]; po, 240 mg, oral 240 mg q.d. for 14 days, geometric mean (CV%)): 527 ng/mL | Cmax [4, 20]: 493 ng/mL | Cmax [4, 21]: 442 ng/mL | Tmax at 14 days ([4]; po, 240 mg, oral 240 mg q.d. for 14 days): 4 h | Tmax ([4]; po, 240 mg, single oral dose 240 mg, day 1): 4 h | Tmax ([4]; po, 240 mg, single oral dose 240 mg, day –5): 4 h | AUC(0-t) ([4]; po, 360 mg, AUC0-24, oral 360 mg q.d. for 14 days, geometric mean (CV%)): 15600 ng·h/mL | AUC(0-t) ([4]; po, 360 mg, AUC0-24, single oral dose 360 mg, day 1, geometric mean (CV%)): 8280 ng·h/mL | AUC(0-t) ([4]; po, 360 mg, AUC0-24, single oral dose 360 mg, day –5, geometric mean (CV%)): 9170 ng·h/mL | AUC(0-inf) [4, 22]: 9980 ng·h/mL | AUC(0-inf) [4, 23]: 11000 ng·h/mL | Cmax ([4]; po, 360 mg, oral 360 mg q.d. for 14 days, geometric mean (CV%)): 1050 ng/mL | Cmax [4, 22]: 697 ng/mL | Cmax [4, 23]: 814 ng/mL | Tmax at 14 days ([4]; po, 360 mg, oral 360 mg q.d. for 14 days): 4 h | Tmax ([4]; po, 360 mg, single oral dose 360 mg, day 1): 4 h | Tmax ([4]; po, 360 mg, single oral dose 360 mg, day –5): 4 h
